Results: patent US20240294509A1, “PYRIDAZINONE COMPOUND AS PARP7 INHIBITOR” (Euregen Biopharma Co., Ltd., priority 2021, published 2024)

Tests used:
NCI-H1373 cells = assay: Inhibitory effect on the proliferation of NCI-H1373 cells (CellTiter-Glo); format: cell-based; settings: Homo sapiens, 144 h, 6 days treatment
Excerpt: 1. Experimental Principle: NCI-H1373 cells are a type of lung adenocarcinoma cells that overexpress PARP7.
2. Experimental Materials: NCI-H1373 cells were obtained from Nanjing Cobioer Biosciences Co., Ltd. CellTiter-Glo® (cell viability chemiluminescent assay reagent) was purchased from Promega (Catalog No. G7571). RPMI-1640 medium was obtained from ATCC (Catalog No. 30-2001). RPMI-1640 medium, penicillin/streptomycin antibiotics were purchased from WISENT. Fetal bovine serum was obtained from Biosera. The Nivo multimode reader was procured from PerkinElmer.
3. Experimental Method: NCI-H1373 cells were seeded in a white 96-well plate with 80 μL of cell suspension per well, containing 3000 NCI-H1373 cells. The cell plate was incubated overnight in a carbon dioxide (CO2) incubator.
The test compounds were serially diluted 5-fold to the 9th concentration, ranging from 2 mmol/L to 5.12 nmol/L, for a duplicate assay. 78 μL of culture medium was added to the intermediate plate, and then, according to the corresponding positions, 2 μL of each gradient-diluted compound was transferred to the intermediate plate. After thorough mixing, 20 μL of the compound solution was transferred to the cell plate. The compound concentration range in the cell plate ranged from 10 μmol/L to 0.0256 nmol/L. The cell plate was incubated in a CO2 incubator for 6 days.
Another cell plate was prepared, and the signal values were read on the day of dosing to obtain the maximum value referred to as Max in the following equation for data analysis. 25 μL of cell viability chemiluminescent assay reagent was added to each well of this cell plate, and it was incubated at room temperature for 10 minutes to stabilize the luminescent signal. Readings were taken using a multimode reader.
After 6 days of treatment, 25 μL of cell viability chemiluminescent assay reagent was added to each well of the cell plate, and it was incubated at room temperature for 10 minutes to stabilize the luminescent signal. Readings were taken using a multimode reader.
The IC50 value was determined by four-parameter curve fitting (obtained by using the “log(inhibitor) vs. response—Variable slope” model in GraphPad Prism).

[1] = Pharmacokinetic properties in SD rats after single intravenous injection and oral administration; format: in vivo; settings: SD male rats
Excerpt: 1. Test purpose: to determine the pharmacokinetic characteristics of some of the example compound of the present invention in SD rats after single intravenous injection(IV) and oral administration(PO) by LC-MS/MS method.
2. Test material: the test drug is self-made from the example compounds of the present invention; Positive control compound RBN2397 purchased from Shanghai BioChemPartner Biotechnology Co., Ltd. SD male rats were obtained from the Laboratory Animal Management Department of Shanghai Family Planning Research Institute. Animal production license number (SCXK (Shanghai) 2018-0006).
Preparation of 0.5% methyl cellulose: 5 g of methyl cellulose were weighed and dissolved in 1000 mL of purified water.
Preparation of oral formulation: A required amount of test compound was weighed and dissolved in 0.5% methyl cellulose solution to obtain a suspension or solution of 0.5 mg/mL or 1.0 mg/mL.
Preparation of intravenous injection formulation: A required amount of test compound was weighed, and dissolved in 0.5 mL of dimethyl sulfoxide to prepare a solution of 4 mg/mL. 0.25 mL of the above solution was added into 0.5 mL of polyethylene glycol 15 hydroxystearate (solutol) and 4.25 mL of physiological saline to obtain a solution of 0.2 mg/mL.
Administration: SD male rats were orally administered (PO) after fasting overnight, and fed 4 hours after administration.
Sample Collection: blood was collected through jugular vein or other suitable vein, and 0.2 mL of blood was collected at each time point. Samples were placed into tubes containing ethylenediamine tetraacetic acid dipotassium salt and kept on ice before centrifugation. Within 1 hour after blood collection, the blood samples were centrifuged at 2-8° C. and 6800 g for 6 minutes and stored at −80° C. The time point for blood collection was 0.083, 0.25, 0.5, 1, 2, 4, 8 and 24 hours after intravenous administration, and 0.25, 0.5, 1, 2, 4, 6, 8 and 24 hours after oral administration.
The intravenous dosage was 1 mg/kg, and the pharmacokinetic parameters for oral administration were standardized to a 1 mg/kg dose.

PARP7 = PARP7 (Homo sapiens (Human), UniProt Q7Z3E1); assay: biochemical
Method: (§1) Experimental Principle: The inhibitory effect of the test substance on the enzymatic activity of PARP1/7 is assessed by using an Enzyme-Linked Immunosorbent Assay (ELISA).
(§2) (1) Pre-coating: Add 100 μL of a PBS buffer (10 mM NaH2PO4, 10 mM Na2HPO4, 150 mM NaCl, pH 7.4) containing 20 g/mL of histone to each well of a 96-well plate, and incubate at 4° C. overnight.
(§3) (3) Add 5 μL of the test substance or solvent to each well.
(§4) (4) Add 20 μL of(PARP1 or PARP7 (50 ng/well), and incubate at 30° C. for 1 hour.
(§5) (5) Add 50 μL of streptavidin-HRP to the reaction mixture, and incubate at 30° C. for 30 minutes.
(§6) (6) Finally, add 100 μL of a citrate buffer containing H2O2 and luminol (0.1 M, pH 5.4), and measure the luminescent signal using a microplate reader (Molecular Devices SpectraMax M5).
(§7) (7) Calculate the inhibition rate of PARP1 or PARP7 enzyme activity as [(control group−treatment group)/control group]×10000. Fit the dose-response data with standard dilutions using Prism GraphPad software and calculate the concentration required to achieve 5000 inhibition of PARP1 or PARP7 enzyme activity (IC50).

PARP1 = PARP1 (Homo sapiens (Human), UniProt P09874); assay: biochemical
Method: as §1, §2, §3, §4, §5, §6, §7

[2] = rat, plasma, Intravenous injection, 1 mg/kg
[3] = rat, plasma, Oral gavage, standardized to a 1 mg/kg dose

Sequence of PARP1 (P09874 whole entry): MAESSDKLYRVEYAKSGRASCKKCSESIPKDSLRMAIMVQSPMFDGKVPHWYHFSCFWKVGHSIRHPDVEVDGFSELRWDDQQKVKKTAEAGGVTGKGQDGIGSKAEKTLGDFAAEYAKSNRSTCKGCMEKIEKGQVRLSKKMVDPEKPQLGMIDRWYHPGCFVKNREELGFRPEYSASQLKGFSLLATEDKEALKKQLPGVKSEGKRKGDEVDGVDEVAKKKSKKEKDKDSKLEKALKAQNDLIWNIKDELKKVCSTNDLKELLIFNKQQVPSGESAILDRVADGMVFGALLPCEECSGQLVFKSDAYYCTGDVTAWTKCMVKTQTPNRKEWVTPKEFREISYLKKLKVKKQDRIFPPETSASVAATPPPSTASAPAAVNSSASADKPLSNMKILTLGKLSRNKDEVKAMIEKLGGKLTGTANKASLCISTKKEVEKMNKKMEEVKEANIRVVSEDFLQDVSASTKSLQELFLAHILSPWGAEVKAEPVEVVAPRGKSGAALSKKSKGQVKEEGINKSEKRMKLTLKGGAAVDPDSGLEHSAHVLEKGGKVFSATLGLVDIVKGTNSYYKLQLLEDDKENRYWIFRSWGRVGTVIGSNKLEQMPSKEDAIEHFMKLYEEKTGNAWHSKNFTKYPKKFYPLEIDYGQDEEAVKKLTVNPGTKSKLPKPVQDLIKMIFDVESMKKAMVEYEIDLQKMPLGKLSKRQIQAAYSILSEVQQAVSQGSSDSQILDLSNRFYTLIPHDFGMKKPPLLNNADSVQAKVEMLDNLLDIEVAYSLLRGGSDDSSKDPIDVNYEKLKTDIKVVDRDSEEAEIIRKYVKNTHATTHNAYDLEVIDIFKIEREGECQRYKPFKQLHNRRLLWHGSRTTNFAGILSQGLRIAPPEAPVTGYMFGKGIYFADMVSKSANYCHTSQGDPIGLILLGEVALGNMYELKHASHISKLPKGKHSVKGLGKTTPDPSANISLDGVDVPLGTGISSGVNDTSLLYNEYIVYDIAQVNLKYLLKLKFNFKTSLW
Sequence of PARP7 (Q7Z3E1 whole entry): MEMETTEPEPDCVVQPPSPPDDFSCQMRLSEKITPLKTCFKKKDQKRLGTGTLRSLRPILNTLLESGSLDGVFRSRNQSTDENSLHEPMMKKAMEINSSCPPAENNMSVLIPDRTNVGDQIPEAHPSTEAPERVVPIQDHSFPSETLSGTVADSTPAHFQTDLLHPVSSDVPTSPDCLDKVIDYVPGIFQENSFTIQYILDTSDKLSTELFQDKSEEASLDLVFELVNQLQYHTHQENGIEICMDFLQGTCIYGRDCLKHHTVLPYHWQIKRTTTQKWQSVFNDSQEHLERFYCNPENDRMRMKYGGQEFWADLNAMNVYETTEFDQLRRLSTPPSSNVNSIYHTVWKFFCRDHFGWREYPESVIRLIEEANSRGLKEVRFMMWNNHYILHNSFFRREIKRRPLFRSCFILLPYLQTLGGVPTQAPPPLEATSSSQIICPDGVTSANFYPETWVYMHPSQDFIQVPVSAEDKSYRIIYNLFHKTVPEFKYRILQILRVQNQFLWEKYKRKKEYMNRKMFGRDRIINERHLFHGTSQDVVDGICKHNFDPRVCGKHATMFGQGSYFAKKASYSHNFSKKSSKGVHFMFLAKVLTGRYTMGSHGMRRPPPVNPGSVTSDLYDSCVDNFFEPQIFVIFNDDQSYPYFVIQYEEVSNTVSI

O=C(CC[C@@H]1C[C@@H](Oc2ccccc2)CN1c1cc(C(F)(F)F)c(=O)[nH]n1)N1CCN(c2ncc(C(F)(F)F)cn2)CC1 [Compound 21]
IC50 (NCI-H1373 cells): 73.6 nM
F ([1]; Oral gavage, oral bioavailability): 21.18%
AUC(0-inf) [1, 2]: 482 ng·h/mL
Cmax [1, 2]: 1210 ng/mL
clearance [1, 2]: 36.9 mL/min/kg
half-life [1, 2]: 30.6 min
AUC(0-inf) [1, 3]: 111 ng·h/mL
Cmax [1, 3]: 40.2 ng/mL
IC50 (PARP7): 3.4 nM
IC50 (PARP1): 816 nM
